Measured values: paper PMC6337261, “Short Peptides with Uncleavable Peptide Bond Mimetics as Photoactivatable Caspase-3 Inhibitors” (Molecules, 2019)

Key:
Assay type in all cases: biochemical
caspase-3 [1] = assay: Competitive ABPP with bisulfite aldehyde quenching; details: 10 μM, irradiated 10 min, reacted with 10 mM NaHSO3 for 20 min, then 30 min with caspase-3, fluorescent ABP read-out
Excerpt: The presence of a ψ(CH2NH) peptide with benzophenone or UV irradiation alone was not sufficient for inhibition, but all needed to be present to block the caspase-3 active site (Figure 3G,H). We hypothesized that the active species is a peptide aldehyde, formed by oxidation of the ψ(CH2NH) moiety (see also discussion in Section 3). To support this hypothesis, we performed an experiment in which this aldehyde was trapped by sodium bisulfite, forming a sodium bisulfite adduct.
Compounds were incubated with or without irradiation (10 min) in PBS with or without 10 mM NaHSO3 and incubated for another 20 min before addition to caspase-3. After 30 min, ABP 13 was added (final concentration 1 μM) to label residual caspase activity. The samples were incubated for 30 min at room temperature, after which 1/3rd volume of 4× Laemmli buffer was added. Samples were processed in the same way as under Section 4.4.1.
(§1) Figure 3 Non-covalent inhibition of caspase-3 by compounds 9 and 10. (A) Fluorescent labeling of caspase-3 by ψ(CH2NH) peptides 9–10 and triazolo peptides 11–12. […] (B) Deconvoluted ESI-MS of caspase-3. (C) Deconvoluted ESI-MS of caspase-3 after incubation with covalent activity-based probe (ABP) 13. Note that the active site, located on the large subunit, is modified. (D) Deconvoluted ESI-MS of caspase-3 after irradiation in the presence of benzophenone ψ(CH2NH) 10a, not resulting in covalent modification. […] (F) Structures of ψ(CH2NH) peptides 14 and 15 without photocrosslinker. (G) UV irradiation of ψ(CH2NH) peptides 14 and 15 in the presence of benzophenone leads to inhibition of caspase-3, as monitored by competitive ABPP. […] Ac-DEVD-aldehyde (100 nM) was used as a control compound, whereas 9a and 10a (10 μM) were irradiated for 10 min and reacted with sodium bisulfite for an additional 20 min before 30 min incubation with caspase-3 and read-out with a fluorescent caspase ABP.

caspase-3 [2] = assay: Gel-based competitive ABPP on recombinant caspase-3; details: 10 μM compound, PBS with 1 mM DTT, fluorescent ABP read-out on gel
Experimental: (§2) To check whether our probes function as inhibitors, competitive ABPP [28] was performed. Recombinant caspase-3 was incubated with probes 9a–10c, 11a and 12a with or without irradiation at 365 nm, followed by labeling of residually active caspase-3 with the fluorescent, caspase-directed activity-based probe (ABP) SV149, a tetramethylrhodamine derivative of KMB-01 [29]. Caspase activity itself was not affected by UV irradiation, as shown by bands of equal intensity with and without UV light (Figure 2A). […] To confirm inhibition, we also performed substrate cleavage assays using the fluorogenic aminomethyl coumarin substrate Ac-DEVD-AMC. […] Inhibition of active caspases could also be achieved in an apoptotic cell lysate (Figure 2D).
(§3) Caspase-3, produced in E. coli and purified as described before, was reacted in PBS with 1 mM DTT. Samples were combined with the indicated probe and irradiated with a handheld UV lamp at 365 nm for 30 min at room temperature. For competition experiments with ‘pre-activation,’ the indicated probes were irradiated for 30 min prior to addition to caspase-3, and incubated for an additional 30 min. Next, ABP 13 was added (final concentration 1 μM) to label residual caspase-3 activity. The samples were incubated for 30 min at room temperature, after which 1/3rd volume of 4× Laemmli buffer was added. Samples were heated at 95 °C for 2 min and resolved by 15% SDS-PAGE. Gels were scanned using a Typhoon Trio+ fluorescent scanner with excitation at 532 nm and an emission filter of 580 nm. Gel images were processed with ImageJ (background subtraction with rolling ball radius of 50 pixels and automated contrast adjustment).
(§4) Figure 2 Inhibition of caspase-3. (A) Competitive activity-based protein profiling (ABPP) experiments using ψ(CH2NH) or triazolo peptide derivatives 9–12 with or without irradiation. Compounds 9a–12a were used at 10 μM final concentration, 9b, 9c, 10b and 10c at 100 μM. Inh = caspase inhibitor biotin-DEVD-AOMK, used at 100 nM concentration. (B) Representative progress curves of fluorescence produced by Ac-DEVD-AMC (50 μM) cleavage by caspase-3, irradiated with or without 10 μM of the indicated compounds. (C) Bar graph of residual caspase-3 activity of replicate experiments (n = 2) of those in (B). (D) Inhibition of executioner’s caspase-3 and -7 in lysates of HEK293 cells, treated with cytochrome c/dATP to induce apoptosis.

caspase-3 [3] = assay: Fluorogenic substrate (Ac-DEVD-AMC) cleavage assay; details: 10 μM compound, 2 nM caspase-3, 50 μM Ac-DEVD-AMC, HEPES pH 7.4 with 10 mM DTT, n = 2
Experimental: as §2
Purified caspase-3 (2 nM) was pre-activated by incubating in caspase reaction buffer (20 mm HEPES pH 7.4, 100 mM NaCl, 1 mM EDTA, 10% sucrose (w/v), 0.1% CHAPS (w/v), 10 mM DTT) for 15 min at 37 °C. Inhibitors 9a, 10a, and DMSO (control) were incubated with the caspase-3 at 10 μM final concentration. One set was irradiated with a handheld UV lamp at 365 nm for 30 min at room temperature whereas the control set was not irradiated. After 30 min, 99 μL of the sample was added to 1 μL of Ac-DEVD-AMC fluorogenic substrate (5 mM in dmso; 50 μM final concentration) in a black 96 well plate. The fluorescence intensity was read using an iD3 SpectraMax platereader (Molecular Devices; excitation wavelength: 340 nm; emission wavelength: 475 nm). The experiment was performed in duplicate. Activity was determined as the slope from the linear part of the progress curve by using GraphPad Prism.
as §4

caspase-3 [4] = assay: Competitive ABPP with UV pre-activation of the probes; details: compound irradiated at 365 nm for 30 min, light source removed, then added to caspase-3 for 30 min; fluorescent ABP read-out
Experimental: Compounds were irradiated with UV light of 365 nm for 30 min and after removal of the light source added to caspase-3. Residual caspase activity was measured by using a fluorescent caspase ABP as in our previous experiments above.
as §3, §1

[5] = irradiated at 365 nm for 30 min at room temperature

Hexynoyl-Asp-Glu-Val-Aspψ(CH2NH)-Ala-Bpa-NH2 [10a]
Inhibition of caspase-3 by irradiated sample exposed to sodium bisulfite (caspase-3 [1]): lose their inhibitory capacity | Inhibition of caspase-3 activity (caspase ABP labeling) (caspase-3 [2]; [5]): complete inhibition | Inhibition of caspase-3 activity (caspase ABP labeling) (caspase-3 [2]; non-irradiated): no decrease in caspase ABP labeling | Inhibition of Ac-DEVD-AMC cleavage by caspase-3 (caspase-3 [3]; [5]): complete blockage of substrate processing | Inhibition of Ac-DEVD-AMC cleavage by caspase-3 (caspase-3 [3]; not irradiated): little to no inhibition | Inhibition of caspase-3 after UV pre-activation of compound (caspase-3 [4]): still inhibited
